Measurements taken from the supplement of paper PMC10307832.

Tests used:
Assay in all cases: relative viability (nuclei count vs DMSO), 5 days (fraction); higher = more cells survive
NCI-H2342 = test system: NCI-H2342
How it was run: (§1)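 Relative viability was taken as the ratio of nuclei in treated wells to nuclei in vehicle wells. Lung cancer cell lines in 1536-well plates received compounds by pin tool one day after seeding, either one drug alone or a fixed anchor-drug dose plus five library-drug doses (not always all listed) in √10 steps. Nuclei were counted on 4× images after 5 days of treatment, and values are medians of duplicate plates.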

NCI-H1437 = test system: NCI-H1437
How it was run: as §1

NCI-H2087 = test system: NCI-H2087
How it was run: as §1

NCI-H23 = test system: NCI-H23
How it was run: as §1

HCC-827 = test system: HCC-827
How it was run: as §1

LXF-289 = test system: LXF-289
How it was run: as §1

PC-3 [JPC-3] = test system: PC-3 [JPC-3]
How it was run: as §1

H3255 = test system: H3255
How it was run: as §1

NCI-H2228 = test system: NCI-H2228
How it was run: as §1

NCI-H1975 = test system: NCI-H1975
How it was run: as §1

NCI-H661 = test system: NCI-H661
How it was run: as §1

HCC-366 = test system: HCC-366
How it was run: as §1

SK-MES-1 = test system: SK-MES-1
How it was run: as §1

LCLC-103H = test system: LCLC-103H
How it was run: as §1

NCI-H2009 = test system: NCI-H2009
How it was run: as §1

HCC-15 = test system: HCC-15
How it was run: as §1

LC-2-ad = test system: LC-2-ad
How it was run: as §1

COR-L23 = test system: COR-L23
How it was run: as §1

PC-14 = test system: PC-14
How it was run: as §1

NCI-H2085 = test system: NCI-H2085
How it was run: as §1

ABC-1 = test system: ABC-1
How it was run: as §1

NCI-H1666 = test system: NCI-H1666
How it was run: as §1

UMC-11 = test system: UMC-11
How it was run: as §1

## Cc1csc(=NC2CCCCC2)n1/N=C/c1ccc(O)c(O)c1O [MIM1] + Cc1cc(Nc2cc(N3CCN(C)CC3)nc(Sc3ccc(NC(=O)C4CC4)cc3)n2)n[nH]1 [Tozasertib] (partner 0.1 µM)
NCI-H2342; first compound 0.2 µM
  relative viability: 0.429
NCI-H2342; first compound 0.6325 µM
  relative viability: 0.58
NCI-H2342; first compound 2 µM
  relative viability: 0.53
NCI-H2342; first compound 6.325 µM
  relative viability: 0.508
NCI-H2342; first compound 20 µM
  relative viability: 0.575
NCI-H1437; first compound 0.2 µM
  relative viability: 0.395
NCI-H1437; first compound 0.6325 µM
  relative viability: 0.434
NCI-H1437; first compound 2 µM
  relative viability: 0.437
NCI-H1437; first compound 6.325 µM
  relative viability: 0.346
NCI-H1437; first compound 20 µM
  relative viability: 0.197
NCI-H2087; first compound 0.2 µM
  relative viability: 0.26
NCI-H2087; first compound 0.6325 µM
  relative viability: 0.284
NCI-H2087; first compound 2 µM
  relative viability: 0.249
NCI-H2087; first compound 6.325 µM
  relative viability: 0.22
NCI-H2087; first compound 20 µM
  relative viability: 0.2
NCI-H23; first compound 0.2 µM
  relative viability: 0.398
NCI-H23; first compound 2 µM
  relative viability: 0.325
NCI-H23; first compound 6.325 µM
  relative viability: 0.175
NCI-H23; first compound 20 µM
  relative viability: 0.15
HCC-827; first compound 0.2 µM
  relative viability: 0.43
HCC-827; first compound 0.6325 µM
  relative viability: 0.404
HCC-827; first compound 2 µM
  relative viability: 0.411
HCC-827; first compound 6.325 µM
  relative viability: 0.169
HCC-827; first compound 20 µM
  relative viability: 0.177
LXF-289; first compound 0.2 µM
  relative viability: 0.167
LXF-289; first compound 0.6325 µM
  relative viability: 0.217
LXF-289; first compound 2 µM
  relative viability: 0.198
LXF-289; first compound 6.325 µM
  relative viability: 0.181
LXF-289; first compound 20 µM
  relative viability: 0.117
PC-3 [JPC-3]; first compound 0.2 µM
  relative viability: 0.912
PC-3 [JPC-3]; first compound 0.6325 µM
  relative viability: 0.86
PC-3 [JPC-3]; first compound 2 µM
  relative viability: 0.849
PC-3 [JPC-3]; first compound 6.325 µM
  relative viability: 0.694
PC-3 [JPC-3]; first compound 20 µM
  relative viability: 0.574
H3255; first compound 0.2 µM
  relative viability: 0.526
H3255; first compound 0.6325 µM
  relative viability: 0.54
H3255; first compound 2 µM
  relative viability: 0.601
H3255; first compound 6.325 µM
  relative viability: 0.537
H3255; first compound 20 µM
  relative viability: 0.277
NCI-H2228; first compound 0.2 µM
  relative viability: 0.257
NCI-H2228; first compound 0.6325 µM
  relative viability: 0.284
NCI-H2228; first compound 2 µM
  relative viability: 0.234
NCI-H2228; first compound 6.325 µM
  relative viability: 0.203
NCI-H2228; first compound 20 µM
  relative viability: 0.123
NCI-H1975; first compound 0.2 µM
  relative viability: 0.643
NCI-H1975; first compound 0.6325 µM
  relative viability: 0.807
NCI-H1975; first compound 2 µM
  relative viability: 0.699
NCI-H1975; first compound 6.325 µM
  relative viability: 0.338
NCI-H1975; first compound 20 µM
  relative viability: 0.254
NCI-H661; first compound 0.2 µM
  relative viability: 0.35
NCI-H661; first compound 0.6325 µM
  relative viability: 0.367
NCI-H661; first compound 2 µM
  relative viability: 0.361
NCI-H661; first compound 6.325 µM
  relative viability: 0.363
NCI-H661; first compound 20 µM
  relative viability: 0.285
HCC-366; first compound 0.2 µM
  relative viability: 0.147
HCC-366; first compound 2 µM
  relative viability: 0.134
HCC-366; first compound 6.325 µM
  relative viability: 0.026
HCC-366; first compound 20 µM
  relative viability: 0.0212
SK-MES-1; first compound 0.2 µM
  relative viability: 0.909
SK-MES-1; first compound 0.6325 µM
  relative viability: 0.848
SK-MES-1; first compound 2 µM
  relative viability: 0.742
SK-MES-1; first compound 6.325 µM
  relative viability: 0.643
SK-MES-1; first compound 20 µM
  relative viability: 0.492
LCLC-103H; first compound 0.2 µM
  relative viability: 0.609
LCLC-103H; first compound 0.6325 µM
  relative viability: 0.426
LCLC-103H; first compound 2 µM
  relative viability: 0.505
LCLC-103H; first compound 6.325 µM
  relative viability: 0.41
LCLC-103H; first compound 20 µM
  relative viability: 0.268
NCI-H2009; first compound 0.2 µM
  relative viability: 0.754
NCI-H2009; first compound 0.6325 µM
  relative viability: 0.701
NCI-H2009; first compound 2 µM
  relative viability: 0.859
NCI-H2009; first compound 6.325 µM
  relative viability: 0.622
NCI-H2009; first compound 20 µM
  relative viability: 0.725
HCC-15; first compound 0.2 µM
  relative viability: 0.354
HCC-15; first compound 0.6325 µM
  relative viability: 0.35
HCC-15; first compound 2 µM
  relative viability: 0.228
HCC-15; first compound 6.325 µM
  relative viability: 0.231
HCC-15; first compound 20 µM
  relative viability: 0.137
LC-2-ad; first compound 0.2 µM
  relative viability: 0.546
LC-2-ad; first compound 0.6325 µM
  relative viability: 0.471
LC-2-ad; first compound 2 µM
  relative viability: 0.367
LC-2-ad; first compound 6.325 µM
  relative viability: 0.364
LC-2-ad; first compound 20 µM
  relative viability: 0.223
COR-L23; first compound 0.2 µM
  relative viability: 0.184
COR-L23; first compound 0.6325 µM
  relative viability: 0.218
COR-L23; first compound 2 µM
  relative viability: 0.182
COR-L23; first compound 6.325 µM
  relative viability: 0.146
COR-L23; first compound 20 µM
  relative viability: 0.152
PC-14; first compound 0.2 µM
  relative viability: 0.526
PC-14; first compound 0.6325 µM
  relative viability: 0.593
PC-14; first compound 2 µM
  relative viability: 0.413
PC-14; first compound 6.325 µM
  relative viability: 0.502
PC-14; first compound 20 µM
  relative viability: 0.357
NCI-H2085; first compound 0.2 µM
  relative viability: 0.781
NCI-H2085; first compound 0.6325 µM
  relative viability: 0.755
NCI-H2085; first compound 2 µM
  relative viability: 0.763
NCI-H2085; first compound 6.325 µM
  relative viability: 0.598
NCI-H2085; first compound 20 µM
  relative viability: 0.533
ABC-1; first compound 0.2 µM
  relative viability: 0.228
ABC-1; first compound 0.6325 µM
  relative viability: 0.182
ABC-1; first compound 2 µM
  relative viability: 0.21
ABC-1; first compound 6.325 µM
  relative viability: 0.206
ABC-1; first compound 20 µM
  relative viability: 0.194
NCI-H1666; first compound 0.2 µM
  relative viability: 0.618
NCI-H1666; first compound 0.6325 µM
  relative viability: 0.625
NCI-H1666; first compound 2 µM
  relative viability: 0.575
NCI-H1666; first compound 6.325 µM
  relative viability: 0.47
NCI-H1666; first compound 20 µM
  relative viability: 0.446
UMC-11; first compound 0.2 µM
  relative viability: 0.197
UMC-11; first compound 2 µM
  relative viability: 0.196
UMC-11; first compound 6.325 µM
  relative viability: 0.207
UMC-11; first compound 20 µM
  relative viability: 0.187
